Reference: the supplement of paper PMC10307832

What follows are cell lines tested with Cn1cnc2c(F)c(Nc3ccc(Br)cc3Cl)c(C(=O)NOCCO)cc21 [Selumetinib] + CS(=O)(=O)CCNCc1ccc(-c2ccc3ncnc(Nc4ccc(OCc5cccc(F)c5)c(Cl)c4)c3c2)o1 [Lapatinib] (partner 2 µM) (assay: relative viability (nuclei count vs DMSO), 5 days (fraction); higher = more cells survive). Settings: first compound 0.02 µM.
Procedure, shortened: (§1)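 After 5 days of treatment, lung cancer cells in 1536-well plates were fixed and stained in a single step (final 0.05% Triton X-100, 1% formaldehyde, 1 ug/ml Hoechst) and their nuclei counted on 4× images. Treatment had been applied by pin tool the day after seeding as one drug alone or as a fixed anchor-drug dose with five library-drug doses (not always all listed) in √10 steps. Relative viability is the nuclei count of treated wells divided by that of vehicle wells, and values are medians of duplicate plates.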

Row | Cell Line | relative viability
1 | EMC-BAC-2 | 0.955
2 | NCI-H2126 | 0.714
3 | Calu-6 | 1.05
4 | HCC-44 | 0.977
5 | NCI-H1734 | 1.12
6 | NCI-H650 | 1.12
7 | LK-2 | 1.16
8 | NCI-H2228 | 1.01
9 | SK-MES-1 | 0.432
10 | HARA | 0.657
11 | COR-L23 | 1.18
12 | COR-L 105 | 0.309
13 | LC-2-ad | 0.91
14 | LXF-289 | 0.874
15 | NCI-H2170 | 0.265
16 | NCI-H322M | 0.524
17 | IA-LM | 0.395

Row | Cell Line | relative viability
18 | HCC-78 | 0.695
19 | A549 | 0.84
20 | NCI-H1299 | 1.06
21 | BEN | 0.69
22 | HCC-15 | 0.786
23 | HCC-827 | 0.175
24 | NCI-H460 | 0.921
25 | LU99A | 1.05
26 | NCI-H2085 | 0.75
27 | A-427 | 0.98
28 | NCI-H520 | 0.894
29 | NCI-H838 | 0.838
30 | NCI-H1792 | 0.881
31 | NCI-H596 | 0.961
32 | NCI-H3122 | 0.882
33 | NCI-H1395 | 0.982
34 | 201T | 1.01

Same assay, conditions: first compound 0.06325 µM

Row | Cell Line | relative viability
35 | EMC-BAC-2 | 0.898
36 | NCI-H2126 | 0.671
37 | Calu-6 | 0.853
38 | HCC-44 | 1
39 | NCI-H1734 | 1.02
40 | NCI-H650 | 1.24
41 | LK-2 | 0.852
42 | NCI-H2228 | 0.765
43 | SK-MES-1 | 0.401
44 | HARA | 0.506
45 | COR-L23 | 1.1
46 | COR-L 105 | 0.3
47 | LC-2-ad | 0.879
48 | LXF-289 | 0.839
49 | NCI-H2170 | 0.267
50 | NCI-H322M | 0.479
51 | IA-LM | 0.182

Row | Cell Line | relative viability
52 | HCC-78 | 0.64
53 | A549 | 0.731
54 | NCI-H1299 | 0.959
55 | BEN | 0.829
56 | HCC-15 | 0.575
57 | HCC-827 | 0.182
58 | NCI-H460 | 0.709
59 | LU99A | 1
60 | NCI-H2085 | 0.706
61 | A-427 | 0.914
62 | NCI-H520 | 0.799
63 | NCI-H838 | 0.732
64 | NCI-H1792 | 0.79
65 | NCI-H596 | 1.03
66 | NCI-H3122 | 0.805
67 | NCI-H1395 | 0.997
68 | 201T | 0.963

Same assay, conditions: first compound 0.2 µM

Row | Cell Line | relative viability
69 | EMC-BAC-2 | 0.905
70 | NCI-H2126 | 0.7
71 | Calu-6 | 0.693
72 | HCC-44 | 0.891
73 | NCI-H1734 | 1.09
74 | NCI-H650 | 1.34
75 | LK-2 | 0.848
76 | NCI-H2228 | 0.852
77 | SK-MES-1 | 0.361
78 | HARA | 0.606
79 | COR-L23 | 0.98
80 | COR-L 105 | 0.337
81 | LC-2-ad | 0.736
82 | LXF-289 | 0.761
83 | NCI-H2170 | 0.274
84 | NCI-H322M | 0.439
85 | IA-LM | 0.111

Row | Cell Line | relative viability
86 | HCC-78 | 0.657
87 | A549 | 0.749
88 | NCI-H1299 | 1.02
89 | BEN | 0.637
90 | HCC-15 | 0.463
91 | HCC-827 | 0.187
92 | NCI-H460 | 0.555
93 | LU99A | 1.02
94 | NCI-H2085 | 0.713
95 | A-427 | 1.09
96 | NCI-H520 | 0.86
97 | NCI-H838 | 0.861
98 | NCI-H1792 | 0.683
99 | NCI-H596 | 0.921
100 | NCI-H3122 | 0.801
101 | NCI-H1395 | 0.93
102 | 201T | 0.958

Same assay, conditions: first compound 0.6325 µM

Row | Cell Line | relative viability
103 | EMC-BAC-2 | 0.862
104 | NCI-H2126 | 0.667
105 | Calu-6 | 0.439
106 | HCC-44 | 0.966
107 | NCI-H1734 | 1.04
108 | NCI-H650 | 1.37
109 | LK-2 | 0.924
110 | NCI-H2228 | 0.695
111 | SK-MES-1 | 0.371
112 | HARA | 0.486
113 | COR-L23 | 1
114 | COR-L 105 | 0.366
115 | LC-2-ad | 0.842
116 | LXF-289 | 0.758
117 | NCI-H2170 | 0.247
118 | NCI-H322M | 0.438
119 | IA-LM | 0.108

Row | Cell Line | relative viability
120 | HCC-78 | 0.675
121 | A549 | 0.5
122 | NCI-H1299 | 0.812
123 | BEN | 0.648
124 | HCC-15 | 0.398
125 | HCC-827 | 0.18
126 | NCI-H460 | 0.399
127 | LU99A | 0.963
128 | NCI-H2085 | 0.68
129 | A-427 | 1.1
130 | NCI-H520 | 0.883
131 | NCI-H838 | 0.671
132 | NCI-H1792 | 0.629
133 | NCI-H596 | 0.68
134 | NCI-H3122 | 0.754
135 | NCI-H1395 | 1.05
136 | 201T | 0.949

What follows are cell lines tested with CC1(C)CCC(CN2CCN(c3ccc(C(=O)NS(=O)(=O)c4ccc(NCC5CCOCC5)c([N+](=O)[O-])c4)c(Oc4cnc5[nH]ccc5c4)c3)CC2)=C(c2ccc(Cl)cc2)C1 [Venetoclax] + CS(=O)(=O)N1CCN(Cc2cc3nc(-c4cccc5[nH]ncc45)nc(N4CCOCC4)c3s2)CC1 [Pictilisib] (partner 1 µM) in the same assay as above. Settings: first compound 0.01 µM.
Procedure, shortened: as §1

Row | Cell Line | relative viability
137 | EMC-BAC-2 | 0.459
138 | NCI-H2126 | 0.482
139 | Calu-6 | 0.801
140 | HCC-44 | 0.63
141 | NCI-H1734 | 0.507
142 | NCI-H650 | 0.805
143 | LK-2 | 0.799
144 | NCI-H2228 | 0.321
145 | SK-MES-1 | 0.345
146 | HARA | 0.55
147 | COR-L23 | 0.676
148 | COR-L 105 | 0.409
149 | LC-2-ad | 0.45
150 | LXF-289 | 0.718
151 | NCI-H2170 | 0.266
152 | NCI-H322M | 0.558
